Test results as given in US20080207563A1, “METHOD FOR INHIBITING PROLIFERATION OF TUMOR CELLS” (priority 2007, published 2008).
Each block holds one compound with its values, some of them ahead of it.

Tests used:
[1] = test system: MDA-MB-468 breast cancer cells; test: Cell viability (MTT) assay, single agents and combinations with erlotinib; format: cell-based, human; conditions: for growth suppression / growth inhibitory effect: single agent treatment, in vitro, MDA-MB-468
Protocol: (§1) Cell respiration, as an indicator of cell viability, is measured by the reduction of 3-(4,5-Dimethylthiazol-2-yl)-2,5-diphenyltetrazolium bromide (MTT) to formazan. HT-29 cells are maintained in McCoy's 5a medium (modified) containing 10% fetal bovine serum and are seeded to 96-well microtiter dishes at 2,000 cells/well in a 100 μl volume while MDA-MB-468 cells are maintained in Dulbecco's modified Eagle's medium containing 10% fetal bovine serum and are seeded to 96-well microtiter dishes at 4,000 cells/well in a volume 100 μl. On the following day, the cells are exposed to compounds in an additional 100 μl at the indicated concentrations and cultured for 5 days. After the addition of 50 μl/well of a 5 mg/ml MTT stock in Dulbecco's phosphate-buffered saline (PBS), the cells are incubated for an additional 2.5 hours at 37° C. Thereafter, the medium is removed and 50 μl of 100% ethanol is added to each well to dissolve the formazan crystals. The conversion of MTT into formazan by viable cells is assessed by a microplate reader at 570 nm. The results are presented as a percentage of the viability of untreated cells (control), which are regarded as 100% viable.
(§2) Dose-response interactions (antagonism, additive, and synergism) of two drugs are expressed as the Fa-Cl (the fraction affected by dose-the combination index) plot using the method of Chou and Talalay described in Advances in Enzyme Regulation, Volume 22, pp. 27-55 (1984) processed by the computer software Calcusyn (BIOSOFT, Cambridge, UK). This program provides objective computerized evaluation procedures. For mutually non-exclusive drugs that have totally independent modes of action, Cl<1, =1, and >1 indicates synergism, additive effect, and antagonism, respectively. The data are supported by classic isobolograms made by the same program. The isobolograms can be generated at different effect levels, e.g., ED50, ED70 and ED90. When it is generated at ED50, if the combination data points for Fa=0.5 falls on the diagonal, an additive effect is indicated; if it falls on the lower left, synergism is indicated; and if it falls on the upper right, antagonism is indicated. If a single drug is not very effective, and an ED50 can not be achieved, the results Fa-Cl or Isobologram can not be provided. In this case, the results are shown as classic dose-effect relationship charts.

[2] = test system: HT-29 colorectal cancer cells; test: as above; format: cell-based, human; conditions: for combination effect of the two drugs: erlotinib in the presence of low doses of MEK inhibitor, HT-29, simultaneous or sequential
Protocol: as §1, §2

EC50 ([2]; Homo sapiens, single agent, HT-29, ED50 can not be reached): > 30 µM
SMILES: C#Cc1cccc(Nc2ncnc3cc(OCCOC)c(OCCOC)cc23)c1 [erlotinib, N-(3-ethynylphenyl)-6,7-bis(2-methoxyethoxy)-4-quinazolinamine, reference compound]
growth suppression / growth inhibitory effect [1]: significant growth suppression
sensitivity of the cells to single agent treatment ([2]; single agent, HT-29 (braf mutation)): very resistant

SMILES: C[C@@H](c1ccccc1)[C@@H](C(=O)Nc1ccc(I)cc1F)N1C(=O)N[C@H](c2ccc(OC[C@H](O)CO)cc2)C1=O [Example 56, (2S,3S)-2-{(R)-4-[4-((R)-2,3-Dihydroxy-propoxy)-phenyl]-2,5-dioxo-imidazolidin-1-yl}-N-(2-fluoro-4-iodo-phenyl)-3-phenyl-butyramide]
combination index (Cl) values, Isobolograms ([1]; combination with erlotinib, ED50, ED75, ED90, all three treatment schedules, CalcuSyn): < 0.5
combination index (Cl), Fa-Cl plot ([1]; combination with erlotinib, Fa >40%, simultaneous or sequential addition, MTT on day 5, CalcuSyn): < 1
combination effect of the two drugs ([1]; combination with erlotinib, MDA-MB-468, simultaneous or sequential): synergism
growth suppression / growth inhibitory effect [1]: significantly less growth inhibitory effect
combination effect of the two drugs [2]: synergistic effects

SMILES: C[C@@H](c1ccccc1)[C@@H](C(=O)Nc1ccc(I)cc1F)N1C(=O)N[C@H](c2ccc(OCCO)cc2)C1=O [Example 48, (2S,3S)—N-(2-Fluoro-4-iodo-phenyl)-2-{(R)-4-[4-(2-hydroxy-ethoxy)-phenyl]-2,5-dioxo-imidazolidin-1-yl}-3-phenyl-butyramide]
combination effect of the two drugs [2]: synergistic effects

SMILES: C[C@@H](c1ccccc1)[C@@H](C(=O)Nc1ccc(I)cc1Cl)N1C(=O)N[C@H](c2ccc(OC[C@H](O)CO)cc2)C1=O [Example 114, (2S,3S)—N-(2-Chloro-4-iodo-phenyl)-2-{(R)-4-[4-((R)-2,3-dihydroxy-propoxy)-phenyl]-2,5-dioxo-imidazolidin-1-yl}-3-phenyl-butyramide]
combination effect of the two drugs [2]: synergistic effects
